Laboratory results published in patent publication US6737383B1, “Herbicidal oxadiazolidines” (priority 1999, dated 2004).

Experiments:
windgrass = assay: Test E windgrass; format: in vivo, Apera spica-venti; settings: Postemergence, 0 to 100 scale
Experimental: (§1) Compounds evaluated in this test were formulated in a non-phytotoxic solvent mixture which included a surfactant and applied to plants that were in the 1- to 4-leaf stage (postemergence application). A mixture of sandy loam soil and greenhouse potting mix in a 60:40 ratio was used for the postemergence test.
(§2) Plantings of these crops and weed species were adjusted to produce plants of appropriate size for the postemergence test. All plant species were grown using normal greenhouse practices. Crop and weed species include annual bluegrass (Poa annua), blackgrass (Alopecurus myosuroides), black nightshade (Solanum nigra), chickweed (Stellaria media), common poppy (Papaver rhoeas), deadnettle (Lamium amplexicaule), downy brome (Bromus tectorum), field violet (Viola arvensis), galium (Galium aparine), green foxtail (Setaria viridis), Italian ryegrass (Lolium multiflorum), jointed goatgrass (Aegilops cylindrica), kochia (Kochia scoparia), lambsquarters (Chenopodium album), littleseed canarygrass (Phalaris minor), rape (Brassica napus), redroot pigweed (Amaranthus retroflexus), Russian thistle (Salsola kali), scentless chamomile (Matricaria inodora), spring barley (Hordeum vulgare), sugar beet (Beta vulgaris), sunflower (Helianthus annuus), ivyleaf speedwell (Veronica hederaefolia), spring wheat (Triticum aestivum), winter wheat (Triticum aestivum), wild buckwheat (Polygonum convolvulus), wild mustard (Sinapis arvensis), wild oat (Avena fatua), windgrass (Apera spica-venti) and winter barley (Hordeum vulgare).
(§3) Treated plants and untreated controls were maintained in a greenhouse for approximately 21 to 28 days, after which all treated plants were compared to untreated controls and visually evaluated. […] A dash response (-) means no test result.

galium = assay: Test E galium; format: in vivo, Galium aparine; settings: Preemergence
spring barley = assay: Test E spring barley; format: in vivo, Hordeum vulgare; settings: Postemergence; for Plant response rating, Spring Barley: 0 to 100 scale
Summary of the method: (§4)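 Greenhouse-grown plants are treated (postemergence: 1- to 4-leaf stage, sandy loam/potting mix 60:40), then evaluated visually versus untreated controls some 21 to 28 days later.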

wild mustard = assay: Test E wild mustard; format: in vivo, Sinapis arvensis; settings: Postemergence; for Plant response rating, Wild mustard: 0 to 100 scale
Summary of the method: as §4

downy brome = assay: Test E downy brome; format: in vivo, Bromus tectorum; settings: Postemergence; for Plant response rating, Downy brome: 0 to 100 scale
Summary of the method: as §4

black nightshade = assay: Test E black nightshade; format: in vivo, Solanum nigra; settings: Postemergence; for Plant response rating, Blk nightshade: 0 to 100 scale
Experimental: as §1, §2, §3

Green foxtail = assay: Test D green foxtail; format: in vivo; settings: Rate 250 g/ha; Postemergence; 0 to 100 scale
rape = assay: Test E rape; format: in vivo, Brassica napus; settings: Preemergence
hairy beggarticks = assay: Test C postemergence hairy beggarticks; format: in vivo, Bidens pilosa; settings: Rate 1120 g/ha, 0 to 100 scale, 0 no effect, 100 complete control
Experimental: as §1, with “grown for various periods of time before treatment” for “in the 1- to 4-leaf stage”
Plantings of these crops and weed species were adjusted to produce plants of appropriate size for the postemergence test. All plant species were grown using normal greenhouse practices. Crop and weed species include arrowleaf sida (Sida rhombifolia), barnyardgrass (Echinochloa crus-galli), cocklebur (Xanthium strumarium), common ragweed (Ambrosia elatior), corn (Zea mays), cotton (Gossypium hirsutum), eastern black nightshade (Solanum ptycanthum), fall panicum (Panicum dichotomiflorum), field bindweed (Convolvulus arvensis), giant foxtail (Setaria faberii), hairy beggarticks (Bidens pilosa), ivyleaf morningglory (Ipomoea hederacea), johnsongrass (Sorghum halepense), ladysthumb smartweed (Polygonum persicaria), lambsquarters (Chenopodium album), large crabgrass (Digitaria sanguinalis), purple nutsedge (Cyperus rotundus), redroot pigweed (Amaranthus retroflexus), soybean (Glycine max), surinam grass (Brachiaria decumbens), velvetleaf (Abutilon theophrasti) and wild poinsettia (Euphorbia heterophylla).
Treated plants and untreated controls were maintained in a greenhouse for approximately 14, to 21 days, after which all treated plants were compared to untreated controls and visually evaluated. Plant response ratings, summarized in Table C, were based upon a 0 to 100 scale where 0 was no effect and 100 was complete control. A dash response (−) means no test result.

large crabgrass = assay: Test D large crabgrass; format: in vivo, Digitaria sanguinalis; settings: Postemergence, 0 to 100 scale
common ragweed = assay: Test C postemergence common ragweed; format: in vivo, Ambrosia elatior; settings: 0 to 100 scale, 0 no effect, 100 complete control
Summary of the method: (§5)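 Compounds in a non-phytotoxic solvent with surfactant were sprayed postemergence on greenhouse-grown plants in 60:40 sandy loam/potting mix. After about 14 to 21 days, visual ratings against untreated controls on a 0 (no effect) to 100 (complete control) scale.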

annual bluegrass = assay: Test E annual bluegrass; format: in vivo, Poa annua; settings: Postemergence; for Plant response rating, Annual bluegras: 0 to 100 scale
Experimental: as §1, §2, §3

kochia = assay: Test E kochia; format: in vivo, Kochia scoparia; settings: Preemergence
field bindweed = assay: Test C postemergence field bindweed; format: in vivo, Convolvulus arvensis; settings: 0 to 100 scale, 0 no effect, 100 complete control
Summary of the method: as §5

soybean = assay: Test C postemergence soybean; format: in vivo, Glycine max; settings: 0 to 100 scale, 0 no effect, 100 complete control
Summary of the method: as §5

giant foxtail = assay: Test C postemergence giant foxtail; format: in vivo, Setaria faberii; settings: 0 to 100 scale, 0 no effect, 100 complete control
Summary of the method: as §5

redroot pigweed = assay: Test C postemergence redroot pigweed; format: in vivo, Amaranthus retroflexus; settings: 0 to 100 scale, 0 no effect, 100 complete control
Summary of the method: as §5

[1] = Rate 125 g/ha, 0 is no effect, 100 is complete control
[2] = Rate 500 g/ha, 0 is no effect, 100 is complete control
[3] = Rate 125 g/ha, 0 to 100 scale (0 no effect, 100 complete control)
[4] = Rate 500 g/ha, 0 to 100 scale where 0 is no effect and 100 is complete control
[5] = Rate 250 g/ha, 0 to 100 scale where 0 is no effect and 100 is complete control

CC(C)N(C(=O)n1oc(=O)n(C2CC2)c1=O)c1ccc(F)cc1 [Compound 242]
Plant response rating, Windgrass (windgrass; Rate 62 g/ha): 90
Plant response rating, Windgrass (windgrass; [1]): 95
Plant response rating, Windgrass (windgrass; [2]): 95
Plant response rating, Galium (galium; [3]): 0
Galium plant response rating (0 to 100 scale) (galium; Rate 250 g/ha): 100
Plant response rating, Galium (galium; [4]): 100
Plant response rating, Spring Barley (spring barley; Rate 62 g/ha): 5
Plant response rating, Spring Barley (spring barley; [1]): 20
Spring Barley plant response rating (spring barley; [5]): 20
Plant response rating, Spring Barley (spring barley; [2]): 20
Plant response rating, Wild mustard (wild mustard; Rate 62 g/ha): 0
Plant response rating, Wild mustard (wild mustard; [1]): 20
Wild mustard plant response rating (wild mustard; [5]): 20
Plant response rating, Wild mustard (wild mustard; [2]): 5
Plant response rating, Downy brome (downy brome; Rate 62 g/ha): 30
Plant response rating, Downy brome (downy brome; [1]): 30
Downy brome plant response rating (downy brome; [5]): 30
Plant response rating, Downy brome (downy brome; [2]): 40
Plant response rating, Blk nightshade (black nightshade; Rate 62 g/ha): 60
Plant response rating, Blk nightshade (black nightshade; [1]): 30
Blk nightshade plant response rating (black nightshade; [5]): 50
Plant response rating, Blk nightshade (black nightshade; [2]): 75
Plant response rating, Green foxtail (Green foxtail): 100
Plant response rating, Rape (rape; [3]): 50
Rape plant response rating (0 to 100 scale) (rape; Rate 250 g/ha): 60
Plant response rating, Rape (rape; [4]): 85
Plant response rating H. beggarticks (hairy beggarticks): 90
Plant response rating, Large crabgrass (large crabgrass; Rate 16 g/ha, 0 no injury, 100 complete control): 0
Plant response rating, Large crabgrass (large crabgrass; Rate 32 g/ha, 0 no injury, 100 complete control): 100
Plant response rating, Large crabgrass (large crabgrass; Rate 64 g/ha, 0 no injury, 100 complete control): 100
Plant response rating, Large crabgrass (large crabgrass; Rate 125 g/ha, 0 no injury, 100 complete control): 100
Plant response rating, Large crabgrass (large crabgrass; Rate 250 g/ha): 100
Plant response rating Common ragweed (common ragweed; Rate 140 g/ha): 0
Plant response rating Common ragweed (common ragweed; Rate 280 g/ha): 10
Plant response rating Common ragweed (common ragweed; Rate 560 g/ha): 80
Plant response rating Common ragweed (common ragweed; Rate 1120 g/ha): 80
Plant response rating, Annual bluegras (annual bluegrass; Rate 62 g/ha): 95
Plant response rating, Annual bluegras (annual bluegrass; [1]): 20
Annual bluegras plant response rating (annual bluegrass; [5]): 10
Plant response rating, Annual bluegras (annual bluegrass; [2]): 80
Plant response rating, Kochia (kochia; [3]): 35
Kochia plant response rating (0 to 100 scale) (kochia; Rate 250 g/ha): 50
Plant response rating, Kochia (kochia; [4]): 60
Plant response rating Field bindweed (field bindweed; Rate 140 g/ha): 0
Plant response rating Field bindweed (field bindweed; Rate 560 g/ha): 0
Plant response rating Field bindweed (field bindweed; Rate 1120 g/ha): 0
Plant response rating, Soybean (soybean; Rate 140 g/ha): 20
Plant response rating, Soybean (soybean; Rate 280 g/ha): 25
Plant response rating, Soybean (soybean; Rate 560 g/ha): 25
Plant response rating, Soybean (soybean; Rate 1120 g/ha): 65
Plant response rating, Giant foxtail (giant foxtail; Rate 140 g/ha): 40
Plant response rating, Giant foxtail (giant foxtail; Rate 280 g/ha): 60
Plant response rating, Giant foxtail (giant foxtail; Rate 560 g/ha): 80
Plant response rating, Giant foxtail (giant foxtail; Rate 1120 g/ha): 85
Plant response rating, Redroot pigweed (redroot pigweed; Rate 140 g/ha): 0
Plant response rating, Redroot pigweed (redroot pigweed; Rate 280 g/ha): 0
Plant response rating, Redroot pigweed (redroot pigweed; Rate 560 g/ha): 10
Plant response rating, Redroot pigweed (redroot pigweed; Rate 1120 g/ha): 50
